This is an account of results in US20050165109A1, “Pharmaceutical composition with combined active agents and methods for using the same” (priority 2002, published 2005).

For experiment [1] the following is noted: literature: WO 99/40904, U.S. Pat. No. 5,304,575, Vuorinen-Markkola 1993, Hernandez-Mijares 2000; cited from earlier work.
Experiment [2] deals with ob/ob mice. The experiment can be described thus: Plasma glucose in ob/ob mice, metformin/ciprofibrate, oral once a day for 4 days. The note with it: for Effect on plasma glucose concentrations (in words) / Glucose levels Day 4: ob/ob mice; for Effect on plasma glucose concentrations (in words): 4 days oral, versus vehicle; for Difference between Vehicle & treatment: plasma glucose Day 4, ob/ob mice; for Difference between Vehicle & treatment / Glucose levels Day 4: metformin 90 mg/kg, ciprofibrate 2.5 mg/kg; for Glucose levels Day 4: plasma glucose, oral once a day for 4 days. The experiment is classed as in vivo. The procedure: (§1) Experiment was conducted in ob/ob mice, an animal model of diabetes. Male, 8-9 week old ob/ob mice were purchased from Jackson Laboratory (Bar Harbor, Me.) and housed in a temperature and humidity controlled room with 12 hour light (6 am to 6 pm)/dark (6 pm-6 am) cycle and ad libitum of water and regular Purina chow. Animals were screened for plasma glucose levels and randomized into groups for experiments.
Experiment was conducted in ob/ob mice. The experimental condition was the same as Working Example 1.
In this experiment, 8 animals were orally dosed with vehicle, metformin (90 mg/kg), ciprofibrate (2.5 mg/kg), or combination of metformin (90 mg/kg) and ciprofibrate (2.5 mg/kg) once a day for 4 days. Plasma glucose concentrations were determined at the end of the experiment.

Experiment [3] concerns ob/ob mice. The experiment can be described thus: Plasma glucose in ob/ob mice, metformin/gemfibrozil, oral once a day for 3 days. Type of experiment: in vivo. The note with it: for Effect on plasma glucose concentrations (in words) / Glucose levels Day 3: ob/ob mice; for Effect on plasma glucose concentrations (in words): 3 days oral, versus vehicle; for Difference between Vehicle & treatment: plasma glucose Day 3, ob/ob mice; for Difference between Vehicle & treatment / Glucose levels Day 3: metformin 90 mg/kg, gemfibrozil 100 mg/kg; for Glucose levels Day 3: plasma glucose, oral once a day for 3 days. The procedure:
as §1
In this experiment, 8 animals were orally dosed with vehicle, metformin (90 mg/kg), gemfibrozil (100 mg/kg), or combination of metformin (90 mg/kg) and gemfibrozil (100 mg/kg) once a day for 3 days. Plasma glucose concentrations were determined at the end of the experiment.

The structures appear in SMILES notation.

Consider `CC(C)(Oc1ccc(C2CC2(Cl)Cl)cc1)C(=O)O` (stereo not shown) [Ciprofibrate, ciprofibrate], for which the “Glucose-lowering effect (in words)” value in experiment [1] was “lack of glucose-lowering effect”. In the experiment on ob/ob mice [2], the “Effect on plasma glucose concentrations (in words)” value was “did not have significant effect on glucose levels”, the “Difference between Vehicle & treatment” value is -32.2 mg/dL and the “Glucose levels Day 4” value was determined as 351.1 ± 23.1 mg/dL. Also, the “Effect on plasma glucose concentrations (in words)” value with ob/ob mice [2] (listed as ciprofibrate) was “minimum effect on reducing plasma glucose and it was not statistically significant”.
For `Cc1ccc(C)c(OCCCC(C)(C)C(=O)O)c1` [Gemfibrozil, gemfibrozil], in the experiment with ob/ob mice [3], the “Effect on plasma glucose concentrations (in words)” value is reported as “did not have significant effect on glucose level”, the “Difference between Vehicle & treatment” value is -57.1 mg/dL and the “Glucose levels Day 3” value is 349.7 ± 39.0 mg/dL. Also, in the experiment on ob/ob mice [3] (listed as gemfibrozil), the “Effect on plasma glucose concentrations (in words)” value was “minimum reduction of plasma glucose and it was not statistically significant”. In addition, in experiment [1], the “Glucose-lowering effect (in words)” value was “lack of glucose-lowering effect”.
With `CN(C)C(=N)N=C(N)N` [Metformin, metformin], in the experiment with ob/ob mice [3], the “Effect on plasma glucose concentrations (in words)” value is recorded as “significantly reduced plasma glucose concentrations”, the “Difference between Vehicle & treatment” value is -88.2 mg/dL and the “Glucose levels Day 3” value turned out to be 318.6 ± 29.3 mg/dL. For the same molecule, in the experiment with ob/ob mice [2], the “Effect on plasma glucose concentrations (in words)” value is given as “significantly reduced plasma glucose concentrations”, the “Difference between Vehicle & treatment” value is -84.1 mg/dL and the “Glucose levels Day 4” value came out at 299.2 ± 24.9 mg/dL.
